Laboratory results reported in article PMC9654546, “Identification of an IGF2BP2-Targeted Peptide for Near-Infrared Imaging of Esophageal Squamous Cell Carcinoma” (Molecules, 2022).
Ends that are not written are not given here. Cy5 = Cy5 fluorescent dye

B1: P12 peptide (…) displayed on phage (peptide)
peptide: LSMPWSPTTYAS

Experiments:
KYSE-30 cells [1] = assay: Immunofluorescence staining (confocal) of cells with Cy5 conjugated peptides; assay type: cell-based, human; conditions: IGF2BP2-positive KYSE-30 cells, fixed and permeabilised, Cy5 conjugated peptide 80 μM overnight at 4 °C
Protocol: Approximately 5 × 10^4 cells were seeded onto fibronectin-coated coverslips in 24-well plates and fixed with 4% paraformaldehyde until the cells reached about 50% confluence. After permeabilization with 0.5% Triton X-100 (Millipore, MA, USA) for 10 min, the cells were blocked with 5% BSA for 0.5 h and subsequently incubated with Cy5 conjugated peptides at a concentration of 80 μM overnight at 4 °C. The next day, 1 μg/mL of diaminophenyl indole (DAPI) was added to stain the nucleus after washing with phosphate-buffered saline (PBS). Thereafter, the coverslips were mounted with ProLong Gold anti-fade (Invitrogen P26930, CA, USA), and the visualizations were conducted using confocal laser-scanning microscopy (Zeiss LSM880, Oberkochen, Germany).

KYSE-30 cells [2] = assay: Flow cytometry of cells incubated with Cy5 conjugated peptides; assay type: cell-based, human; conditions: Cy5 conjugated peptide 50 μM, 15 min, room temperature, 10,000 gated cells
Protocol: When the cells in the 6 cm dish were 80–90% grown, they were harvested with Accutase (Sigma-Aldrich, MO, USA) and incubated with Cy5 conjugated peptides at a concentration of 50 μM for 15 min at room temperature, protected from light. After incubation, the cells were washed 3 times with ice-cold PBS and resuspended in 200 µL of PBS. Flow cytometry was performed on a CytoFLEX LX flow cytometer (Beckman Coulter, IN, USA) and eventually, 10,000 gated cells were collected for analysis. The results were finally analyzed by flow cytometry using Flow Jo software (v7.6, BD Biosciences, OR, USA).

KYSE-30 xenografts = assay: Near-infrared fluorescence imaging and ex vivo biodistribution in KYSE-30 bearing xenograft models; design: species or system mice
Protocol: Human esophageal cancer cell lines EC-9706, EC-109, and TE-1 were acquired from the Institute of Basic Medical Science, Chinese Academy of Medical Sciences, whereas KYSE-30, KYSE-410, KYSE-450, and KYSE-520 were obtained from the DSMZ (Deutsche Sammlung von Mikroorganismen und Zellkulturen). All cells were maintained in an incubator containing a humid atmosphere of 5% CO2 at 37 °C. All cells were cultured in RPMI-1640 medium supplemented with 10% fetal bovine serum (FBS) and penicillin-streptomycin solution. Mice aged 4 weeks were purchased from Guangdong Medical Laboratory Animal Center (Guangdong, China). Subcutaneous tumor models were constructed by subcutaneously injection of about 1 × 10^7 cells with a 20% suspension of Matrigel (Corning, NY, USA). All animal experiments were performed under a protocol approved by the Animal Ethics Committee of The Fifth Affiliated Hospital of Sun Yat-sen University.
Mice bearing subcutaneous esophageal tumors were injected with an equivalent of 50 μg Cy5-peptide via a tail vein. After circulation, the mice were anesthetized with isoflurane, and fluorescence images were captured at different time points of 10 min, 1 h, 2 h, 4 h, and 6 h by an IVIS Spectrum (PerkinElmer, MA, USA) with an excitation wavelength of 640 nm and an emission wavelength of 670 nm. The region of interest (ROI) was manually sketched to calculate the intensity of the fluorescence as mean fluorescence intensity (MFI). In addition, the tumors and main organs (bladder, liver, heart, lungs, stomach, spleen, skin, kidneys, colon, muscles, bones, and blood) were dissected and imaged for biodistribution analysis.

[3] = molecular target: recombinant IGF2BP2 protein (approximately 29 kDa) (human); assay: ELISA; phage ELISA; purified IGF2BP2 protein coated on a 96-well plate, phage clones after the third round of screening, OD at 450 nm
[4] = KYSE-30 xenograft mice, 50 μg Cy5-peptide via tail vein, ROI quantification, n = 3
[5] = ex vivo optical imaging of tumors and main organs 2 h postinjection, 50 μg i.v., n = 3

Molecule	Binding / fluorescence in confocal immunocytochemistry (KYSE-30 cells [1])	Peak shift in flow cytometric analysis (KYSE-30 cells [2])	Binding to IGF2BP2-positive tumors (immunofluorescence of frozen tumor sections after imaging) (KYSE-30 xenografts; KYSE-30 tumor tissue resected after imaging)	TBRs over time (KYSE-30 xenografts; [4])	Time at which mean fluorescence intensity (MFI) peaked (KYSE-30 xenografts; [4]) [h]	Tumor accumulation in NIRF imaging in comparison to C12-Cy5 (KYSE-30 xenografts; KYSE-30 xenograft mice, 50 μg Cy5-peptide via tail vein, different time points postinjection, n = 3)	Uptake in kidney relative to other organs (KYSE-30 xenografts; biodistribution, KYSE-30 xenograft mice)	Clearance route from biodistribution (KYSE-30 xenografts; [5])	Enrichment in KYSE-30 tumors relative to organs (biodistribution) (KYSE-30 xenografts; [5])	OD value (450 nm) relative to the control (times that of the control) [3]
P12-Cy5: P12 peptide conjugated to arginine-penetrating peptide (RRRRRRRR) at the C-terminus and Cy5 fluorescent group at the N-terminus (Cy5-LSMPWSPTTYASRRRRRRRR; also: linker between P12 and R8 not defined)	strong binding in the cytoplasm	peak shift	strong binding	gradually increasing over time	2	significantly higher tumor accumulation	relatively higher in the kidney than in other organs, including the tumors	prominent renal clearance	high in all organs except the urinary organs	
B1										10
